From PMC7256847 (Polish Journal of Microbiology, 2019) come the findings set out here.

Data set [1] concerns the target T1, alanine racemase (SiAlr) (Streptococcus iniae, UniProt A0A3L8GG59).
T1 sequence (A0A3L8GG59 1-368): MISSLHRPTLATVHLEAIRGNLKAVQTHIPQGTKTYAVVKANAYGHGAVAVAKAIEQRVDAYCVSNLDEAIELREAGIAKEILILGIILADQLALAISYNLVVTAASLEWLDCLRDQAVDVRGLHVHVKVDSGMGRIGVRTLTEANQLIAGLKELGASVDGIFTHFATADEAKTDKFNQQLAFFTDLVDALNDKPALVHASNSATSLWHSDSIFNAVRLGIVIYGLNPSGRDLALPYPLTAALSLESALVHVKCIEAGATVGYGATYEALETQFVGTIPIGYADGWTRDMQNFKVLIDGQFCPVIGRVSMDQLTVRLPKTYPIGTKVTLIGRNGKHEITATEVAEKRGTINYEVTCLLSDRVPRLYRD
The data set is described as follows: enzyme inhibition assay with purified recombinant SiAlr. The data set is classed as biochemical.

Data set [2] deals with T1, alanine racemase (SiAlr). The data set is described as above. The data set is classed as biochemical. This is another data set of the same source.
Substrate in data set [3]: C[C@@H](N)C(=O)O
The data set is described as follows: HPLC racemization kinetics. The settings on record: pyridoxal […]'-phosphate (PLP). The data set is classed as biochemical, Streptococcus iniae.

Substrate in data set [4]: C[C@H](N)C(=O)O
Briefly: HPLC racemization kinetics. Type of data set: biochemical, Streptococcus iniae. The note with it: pyridoxal […]'-phosphate (PLP).

Like-named read-outs stand apart in the source and are kept apart here.

Turning to `N[C@@H]1CON=C1O` [D-cycloserine], the IC50 (in general, the concentration that inhibits the measured activity by half) in data set [1] is 3.69 µM.

As to `O=C(O)Cc1cc(O)ccc1O` [homogentisic acid], the IC50 in data set [2] worked out at 12.3 µM.

Take `Oc1ccc(O)cc1` [hydroquinone]: in data set [2], the IC50 was 11.4 µM.

B1: alanine racemase (SiAlr) (Streptococcus iniae) (protein)
chain: MISSLHRPTLATVHLEAIRGNLKAVQTHIPQGTKTYAVVKANAYGHGAVAVAKAIEQRVDAYCVSNLDEAIELREAGIAKEILILGIILADQLALAISYNLVVTAASLEWLDCLRDQAVDVRGLHVHVKVDSGMGRIGVRTLTEANQLIAGLKELGASVDGIFTHFATADEAKTDKFNQQLAFFTDLVDALNDKPALVHASNSATSLWHSDSIFNAVRLGIVIYGLNPSGRDLALPYPLTAALSLESALVHVKCIEAGATVGYGATYEALETQFVGTIPIGYADGWTRDMQNFKVLIDGQFCPVIGRVSMDQLTVRLPKTYPIGTKVTLIGRNGKHEITATEVAEKRGTINYEVTCLLSDRVPRLYRD
Turning to B1, the Michaelis-Menten constant (Km) (in general, the substrate concentration at which the rate is half of its maximum) in data set [3] is listed as 14.36 mM; in data set [4], 33.11 mM.
